According to ChEMBL document CHEMBL2177053, “Current landscape of phosphodiesterase 10A (PDE10A) inhibition” (J Med Chem, 2012):
Blank lines part the entries; values can stand above or below the compound they belong to.

Legend:
[1] = target: T1, cAMP and cAMP-inhibited cGMP 3',5'-cyclic phosphodiesterase 10A (Homo sapiens, UniProt Q9Y233); experiment: Inhibition of PDE10A by fluorescence polarization assay
[2] = target: T1, cAMP and cAMP-inhibited cGMP 3',5'-cyclic phosphodiesterase 10A; experiment: Inhibition of PDE10A using [3H]cAMP and [3H]cGMP as substrate after 30 mins by scintillation counting
[3] = target: T1, cAMP and cAMP-inhibited cGMP 3',5'-cyclic phosphodiesterase 10A; experiment: Inhibition of human full length PDE10A expressed in SF21 cells using [3H]cGMP as substrate after 60 mins by scintillation proximity assay
[4] = target: T1, cAMP and cAMP-inhibited cGMP 3',5'-cyclic phosphodiesterase 10A; experiment: Inhibition of human PDE10A1 using [3H]cAMP as substrate after 20 mins by TopCount scintillation counting
[5] = target: T1, cAMP and cAMP-inhibited cGMP 3',5'-cyclic phosphodiesterase 10A; experiment: Inhibition of PDE10A
[6] = target: T1, cAMP and cAMP-inhibited cGMP 3',5'-cyclic phosphodiesterase 10A; experiment: Inhibition of PDE10A at 1 uM
Rattus norvegicus [7] = experiment: Antipsychotic activity in iv dosed rat assessed as inhibition of apomorphine-induced Stereotypy administered 1 hr prior to apomorphine challenge; type: functional
Rattus norvegicus [8] = experiment: Antipsychotic activity in sc dosed Wiga rat assessed as inhibition of phencyclidine-induced hyperlocomotion administered 60 mins prior to phencyclidine challenge measured up to 30 mins; type: functional
Mus musculus [9] = experiment: Antipsychotic activity in iv dosed NMRI mouse assessed as inhibition of SCH-23390-induced hypolocomotion administered 30 mins prior to SCH-23390 challenge measured up to 30 mins; type: functional
Rattus norvegicus [10] = experiment: Antipsychotic activity in sc dosed Wistar Wiga rat assessed as latency to avoid an electric shock measured up to 120 mins by conditioned avoidance responce test; type: functional; settings: 2 h
[11] = target: T1, cAMP and cAMP-inhibited cGMP 3',5'-cyclic phosphodiesterase 10A; experiment: Inhibition of human full length PDE10A using [3H]cGMP as substrate after 20 mins by scintillation proximity assay
[12] = Inhibition of bovine PDE10A using [3H]cAMP as substrate after 90 mins by scintillation counting; set-up: species or system Bos taurus
Rattus norvegicus [13] = experiment: Antipsychotic activity in sc dosed rat prepulse inhibition model; type: functional
Rattus norvegicus [14] = experiment: Antipsychotic activity in sc dosed rat assessed as decrease in spontaneous locomotor activity; type: functional
Rattus norvegicus [15] = experiment: Antipsychotic activity in sc dosed rat assessed as decrease in phencyclidine-induced locomotor activity; type: functional
Rattus norvegicus [16] = experiment: Antipsychotic activity in sc dosed rat by conditioned avoidance response test; type: functional
Rattus norvegicus [17] = experiment: Antipsychotic activity in sc dosed rat assessed as decrease in amphetamine-induced spontaneous locomotor activity; type: functional
[18] = Selectivity ratio of IC50 for PDE1B1 to IC50 for rat recombinant PDE10A2
Mus musculus [19] = experiment: Antipsychotic activity in NMRI mouse assessed as inhibition of phencyclidine-induced hyperlocomotion at 5 mg/kg, sc administered 60 mins prior to phencyclidine challenge measured up to 60 mins relative to vehicle-treated control; type: functional; settings: route subcutaneous

T1 sequence (Q9Y233 whole entry): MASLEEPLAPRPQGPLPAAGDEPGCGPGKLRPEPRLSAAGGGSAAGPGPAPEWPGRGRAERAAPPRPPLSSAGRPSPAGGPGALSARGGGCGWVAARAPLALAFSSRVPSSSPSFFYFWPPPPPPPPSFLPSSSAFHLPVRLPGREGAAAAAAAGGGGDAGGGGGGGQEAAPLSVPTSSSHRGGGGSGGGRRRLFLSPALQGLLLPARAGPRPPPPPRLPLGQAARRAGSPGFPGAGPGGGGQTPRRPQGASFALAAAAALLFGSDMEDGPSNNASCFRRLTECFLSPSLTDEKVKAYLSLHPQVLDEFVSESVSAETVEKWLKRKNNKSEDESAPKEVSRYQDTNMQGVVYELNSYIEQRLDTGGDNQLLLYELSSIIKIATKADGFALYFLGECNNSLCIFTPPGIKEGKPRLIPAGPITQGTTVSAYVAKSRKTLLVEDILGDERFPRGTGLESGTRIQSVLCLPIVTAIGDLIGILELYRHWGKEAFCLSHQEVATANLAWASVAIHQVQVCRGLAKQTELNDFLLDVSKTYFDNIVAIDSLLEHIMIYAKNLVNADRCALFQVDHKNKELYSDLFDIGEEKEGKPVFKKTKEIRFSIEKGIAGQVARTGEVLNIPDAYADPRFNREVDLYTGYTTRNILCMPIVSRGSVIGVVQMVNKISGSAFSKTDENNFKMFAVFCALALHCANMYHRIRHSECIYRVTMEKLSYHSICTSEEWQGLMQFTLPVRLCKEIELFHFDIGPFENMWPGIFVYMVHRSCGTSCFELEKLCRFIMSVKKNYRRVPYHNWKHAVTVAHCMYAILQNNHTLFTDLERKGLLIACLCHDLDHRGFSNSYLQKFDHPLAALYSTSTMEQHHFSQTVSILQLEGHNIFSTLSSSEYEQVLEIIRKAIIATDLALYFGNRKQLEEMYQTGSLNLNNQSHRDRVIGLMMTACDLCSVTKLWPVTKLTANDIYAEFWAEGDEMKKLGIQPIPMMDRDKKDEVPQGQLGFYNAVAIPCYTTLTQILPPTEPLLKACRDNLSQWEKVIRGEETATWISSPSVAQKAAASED

Structure (SMILES): CN(C(=O)COc1ccc(-c2c(-c3ccc(Cl)cc3)nc3sccn23)cc1)c1ccccn1
- IC50 [2]: < 100 nM

Structure (SMILES): COc1cn(-c2ccc(-n3cccn3)cc2F)nc(-c2ccnn2-c2cccc(Cl)c2)c1=O
- IC50 [3]: < 10 nM

Structure (SMILES): O=C(c1ccc(Oc2nccnc2-c2ccnc(C(F)(F)F)c2)cc1)c1nc2ccccc2[nH]1
- IC50 [5]: < 25 nM

Structure (SMILES): COc1cc(-c2coc(C(=O)C(OC)c3ccc(-c4nnc(C)o4)cc3)n2)cc(OC)c1Br (stereo not given)
- IC50 [2]: < 1000 nM

Structure (SMILES): COc1cccc2c1C(=O)N(CCc1nc3ccccc3c(=O)n1-c1ccc3cnn([11CH3])c3c1)C2=O
- Ki [1]: 0.95 nM

Structure (SMILES): CCCC(=O)N(Cc1cccnc1)c1ccc(OCc2ccc3ccccc3n2)cc1
- IC50 [2]: < 100 nM

Structure (SMILES): Clc1ccc(/C=C(/Cn2ncnn2)c2ccc(OCc3ccc4ccccc4n3)cc2)cc1
- inhibition [6]: 98%
- IC50 [5]: < 100 nM

Structure (SMILES): COCCc1ccc(-c2c(C)nc3c(N4CCOCC4)ccnn23)cn1 [JNJ-42396302]
- ED50 (Rattus norvegicus [7]): 1.3 mg/kg
- ED50 (Rattus norvegicus [8]): 2 mg/kg
- ED50 (Mus musculus [9]): 7.1 mg/kg
- ED50 (Rattus norvegicus [10]): 4.7 mg/kg

Structure (SMILES): COCCn1nc(-c2ccccn2)cc1NC(=O)c1nc(C2CC2)ccc1Nc1cncnc1
- IC50 [11]: < 1 nM

Structure (SMILES): c1cnc(N2CCOCC2)c(-c2ccc(OCc3ccc4ccccc4n3)cc2)c1
- Ki [1]: < 1000 nM

Structure (SMILES): O=C(CCCN1CCC(O)(c2ccc(Cl)cc2)CC1)c1ccc(F)cc1 [HALOPERIDOL]
- ED50 (Rattus norvegicus [13]): 0.32 mg/kg
- ED50 (Rattus norvegicus [14]): 0.07 mg/kg
- ED50 (Rattus norvegicus [15]): 0.13 mg/kg
- ED50 (Rattus norvegicus [16]): 0.04 mg/kg
- ED50 (Rattus norvegicus [17]): 0.02 mg/kg

Structure (SMILES): Cc1cc(Cl)cc2c(N3CCCN(S(C)(=O)=O)CC3)c3c(C)n[nH]c3nc12
- IC50 [2]: < 100 nM

Structure (SMILES): Cc1ncccc1-c1cccc(-c2nc(NCc3ccncc3)c3ccncc3n2)c1
- Ki [1]: < 1000 nM

Structure (SMILES): O=C(N/N=C/c1cccc2cnccc12)C1CC1c1ccc(-c2ccccc2)cc1 (stereo not given)
- IC50 [4]: < 50 nM

Structure (SMILES): COCCOc1ccc(-c2c(C)nc3c(-c4ccncc4)ccnn23)cn1
- Ratio IC50 [18]: 200
- ED50 (Rattus norvegicus [7]): 1.5 mg/kg
- ED50 (Rattus norvegicus [8]): 6.1 mg/kg
- ED50 (Mus musculus [9]): 5 mg/kg
- ED50 (Rattus norvegicus [10]): 5.4 mg/kg

Structure (SMILES): Cc1nc2ccccc2nc1OCc1nc(OC2CCOCC2)cc(N2CCCC2)n1
- IC50 [5]: 0.61 nM

Structure (SMILES): O=S(=O)(c1cccc2c1CN(c1nc(NCc3ccncc3)c3ccncc3n1)CC2)N1CCOCC1
- Ki [1]: < 1000 nM

Structure (SMILES): Cn1nc(-c2ccc3ccccc3n2)cc1NC(=O)c1nc(C2CC2)ccc1Nc1cncnc1
- IC50 [11]: < 1 nM

Structure (SMILES): Cc1cnc(C)n2nc(CCc3nc(-c4ccccc4)cn3C)nc12
- inhibition in vivo at 5 mg/kg (Mus musculus [19]): 96%

Structure (SMILES): c1cc(-c2nc(OCc3ccncc3)c3ccncc3n2)cc(-c2ncco2)c1
- Ki [1]: < 1000 nM

Structure (SMILES): COCCc1ccc(-c2c(C)nc3c(N4CCOCC4)nccn23)cn1
- ED50 (Rattus norvegicus [10]): 2 mg/kg

Structure (SMILES): O=C1Cc2cc(CCN3CCN(c4nsc5ccccc45)CC3)c(Cl)cc2N1 [ZIPRASIDONE]
- ED50 (Rattus norvegicus [13]): 1.78 mg/kg
- ED50 (Rattus norvegicus [14]): 0.71 mg/kg
- ED50 (Rattus norvegicus [15]): 0.2 mg/kg
- ED50 (Rattus norvegicus [16]): 0.52 mg/kg
- ED50 (Rattus norvegicus [17]): 0.17 mg/kg

Structure (SMILES): Cc1nc2ccccc2nc1OCc1cc(OC2CCOCC2)nc(N2CCCC2)n1
- IC50 [5]: 0.22 nM

Structure (SMILES): COc1ccc(C2=C(c3ccc(OCc4ccc5ccccc5n4)cc3)C(=O)N(C)C2)cc1
- IC50 [4]: < 50 nM

Structure (SMILES): COc1ccc(-c2cc(N3CCn4ccnc4C3)nc(/C=C/c3nc(N(C)C)c4ccccc4n3)n2)cc1OC
- IC50 [5]: 0.44 nM

Structure (SMILES): c1ccc(-c2ccc(OCc3ccc4ccccc4n3)cc2)c(-c2ccncc2)c1
- IC50 [4]: < 50 nM

More lines, now with the values ahead:

- Ki [1]: 0.1 nM
Structure (SMILES): Cc1ccc2c(=O)n(-c3ccc(O[11CH3])cc3)c(CCN3C(=O)c4cccc(OC(C)C)c4C3=O)nc2n1

- IC50 [2]: < 10 nM
Structure (SMILES): O=C(NCCc1nc2ccccc2[nH]1)c1cc(Br)cn2nc(C3CC3)nc12

- IC50 [4]: < 50 nM
Structure (SMILES): CN(/N=C/c1cccc2cnccc12)C(=O)C1CC1c1ccc(C(C)(C)C)cc1 (stereo not given)

- IC50 [5]: 5.3 nM
Structure (SMILES): Cc1ccc(C)n2nc(CCc3nc(-c4ccsc4)nn3C)nc12

- Ki [1]: 0.1 nM
Structure (SMILES): COc1ccc(-n2c(CCN3C(=O)c4cccc(OC(C)C)c4C3=O)nc3nc(C)ccc3c2=O)cc1

- IC50 [5]: 0.34 nM
Structure (SMILES): Cc1ncc(C)n2nc(CCc3c[nH]c(-c4cccs4)n3)nc12

- IC50 [12]: 0.27 nM
Structure (SMILES): Cc1nc2c(nc1-c1cc3nc(N4CCCC4)cc(N[C@H]4CC[C@](C)(O)CC4)n3n1)CCCO2

- IC50 [2]: < 1000 nM
Structure (SMILES): COc1cc(-c2ccc(C(=O)C(OC)c3ccc(-c4nnc(C)o4)cc3)o2)cc(OC)c1OC (stereo not given)

- IC50 [5]: 0.89 nM
Structure (SMILES): Cc1nc2ccccc2nc1/C=C/c1nc(OC2CCOCC2)cc(N2CCCC2)n1

- IC50 [2]: < 10 nM
Structure (SMILES): COc1cc2c(cc1OC)-c1c(-c3cncc(-n4ccc5ccccc54)c3)nc(C)n1CC2

- IC50 [2]: < 10 nM
Structure (SMILES): CC(C)(C)c1nnc2c(C(=O)NCCCc3nc4ccccc4[nH]3)cc(-c3ccc(O)cc3)cn12

- inhibition [6]: 100%
- IC50 [5]: < 100 nM
Structure (SMILES): Clc1ccc(/C=C(/COc2ccncc2)c2ccc(OCc3ccc4ccccc4n3)cc2)cc1
